Data reported in US12351556B2, “Pyridin-2(1H)one derivatives, their preparation and their use for the treatment of pain” (INSTITUT NATIONAL DE LA SANTE ET DE LA RECHERCHE MEDICALE …, priority 2019, dated 2025).
Entries after “also recorded” stand apart in the source; their conditions may differ.

System: inflammatory MA (face CFA model)
Assay: Face Complete Freund's Adjuvant (CFA) model of inflammatory mechanical allodynia
Type: in vivo
Settings: rat, intracisternal 5 μL at 100 μM, 30 min before CFA
Method: FIG. 1 illustrates the results obtained by the intracisternal application of compounds 19-24, 66-72 and 74-82. These compounds prevent face MA in a rat model of inflammatory pain (Complete Freund's Adjuvant (CFA), n=4-6 rats for each compound). For this assay, compounds (5 μL at 100 μM) or control vehicle were intra-cisternally administred 30 min before CFA injection.
Face Complete Freund's Adjuvant (CFA) Model.
CFA (Becton Dickinson) was dissolved in saline solution containing Tween 80 and paraffin oil and conserved at 4° C. For the behavioral tests, animals were briefly (<2 min) anesthetized using a mask with 2% isoflurane and received a subcutaneous injection of 25 μL of CFA (2.5 mg/kg) solution into the right vibrissa pad using a 27 Ga needle coupled to a 25 μL Hamilton syringe, as described previously. After injection, animals were awakened from anesthesia and placed in the behavioral experimental room, followed by a 120 min mechanical testing period.
Intracisternal Injection:
For investigating the effects of synthetized compounds upon mechanical allodynia, animals were briefly (<2 min) anesthetized using a mask with 2% isoflurane and received an intracisternal injection of 5 μL of compound (100 μM) or vehicle alone (saline+1% DMSO) using a 10 μL Hamilton syringe. After recovery (<2 min), rats were placed in an observation field (0.6×0.6 m square) under red light for a period test. 6-g von Frey filament was gently applied every 15 or 30 min onto the orofacial region by a first experimenter. The behavioral responses were observed and quantified by a second experimenter (see below).
Behavioral Responses to Normally Innocuous (6-g Von Frey Filament) Mechanical Stimulation.
The behavioral responses procedure was previously developed by Vos et al. 1994. A rat's response to mechanical stimulation consisted of one or more of the following elements: (1) detection, rat turn head toward stimulus; (2) withdrawal reaction, rat pull paw away or turn head away or pull it briskly backward when stimulation is applied (a withdrawal reaction is assumed to include a detection element preceding the head withdrawal and therefore consists of two responses elements); (3) escape/attack, rats avoid further contact with the stimulus, either passively by moving their bodies away from the stimulus, or actively by attacking the tip of the […]; (4) asymmetric grooming, rats display an uninterrupted series of at least three wash strokes directed to the stimulated area.
The in vivo efficacy of some compounds was evaluated on a rat model of inflammatory MA (face CFA model; Alba-Delgado et al J. Neurosci. 2018, 38, 10489-10504) (FIG. 1). After receiving a subcutaneous injection of 25 μL of CFA (2.5 mg/kg) into the right vibrissa pad, rats develop a MA that lasts days. […] In this model of inflammatory MA, MA was suppressed in compound 69 treated rats, in comparison to animals treated with vehicle (FIG. 2A).

| Structure (SMILES) | prevention of inflammatory MA (allodynic score, 6-g von Frey filament) |
| --- | --- |
| O=c1[nH]cc(Nc2ccccc2)cc1-c1ccncc1 [Compound 21, 5-(Phenylamino)-[3,4′-bipyridin]-2(1H)-one] | comparable gains of activity |
| O=c1[nH]cc(Nc2ccccc2)cc1-c1cccc2cccnc12 [Compound 23, 5-(Phenylamino)-3-(quinolin-8-yl)pyridin-2(1H)-one] | prevented the development of inflammatory MA |
| O=c1[nH]cc(Nc2ccccc2)cc1-c1cncnc1 [Compound 24, 5-(Phenylamino)-3-(pyrimidin-5-yl)pyridin-2(1H)-one] | prevented the development of inflammatory MA |
| CCOC(=O)c1ccccc1-c1cc(Nc2ccccc2)c[nH]c1=O [Compound 70, Ethyl 2-(2-oxo-5-(phenylamino)-1,2-dihydropyridin-3-yl)benzoate] | high activities |
| O=c1[nH]cc(Nc2ccccc2)cc1-c1ccccc1[N+](=O)[O-] [Compound 72, 3-(2-Nitrophenyl)-5-(phenylamino)pyridin-2(1H)-one] | prevented the development of inflammatory MA |
| CC(=O)c1cccc(-c2cc(Nc3ccccc3)c[nH]c2=O)c1 [Compound 75, 3-(3-Acetylphenyl)-5-(phenylamino)pyridin-2(1H)-one] | prevented the development of inflammatory MA |
| Cc1ccc(-c2cc(Nc3ccccc3)c[nH]c2=O)cc1 [Compound 77, 5-(Phenylamino)-3-(p-tolyl)pyridin-2(1H)-one] | prevented the development of inflammatory MA; also recorded: comparable gains of activity |
| O=c1[nH]cc(Nc2ccccc2)cc1-c1ccc(OC(F)(F)F)cc1 [Compound 79, 5-(Phenylamino)-3-(4-(trifluoromethoxy)phenyl)pyridin-2(1H)-one] | prevented the development of inflammatory MA |
| NC(=O)c1ccc(-c2cc(Nc3ccccc3)c[nH]c2=O)cc1 [Compound 81, 4-(2-Oxo-5-(phenylamino)-1,2-dihydropyridin-3-yl)benzamide] | prevented the development of inflammatory MA |
| O=c1[nH]cc(Nc2ccccc2)cc1-c1ccc(F)cc1F [Compound 82, 3-(2,4-Difluorophenyl)-5-(phenylamino)pyridin-2(1H)-one] | prevented the development of inflammatory MA |

Molecular target: p38α MAPK (Homo sapiens (Human), UniProt Q16539)
Assay: p38 alpha IC50
Type: biochemical
Settings: p38 alpha; read-out: Mean IC50
Method: Studies were undertaken to identify the possible biological target(s) of compound 69. The activation in neurons of PK such as PKCγ, ERK or p38 MAPK can contribute to pain hypersensitivity. Therefore, it was decided to screen compound 69 toward a panel of 50 PKs that provide a representative sampling of the human kinome (FIG. 3, Table 3) (Biochem. J. 2007, 408, 297-315). In this panel, p38α MAPK was identified as the privileged target, with 19% of kinase residual activity at 10 μM compound concentration.
The selectivity of compound 69 was evaluated at 1 μM toward another panel containing all four p38 MAPK isoforms, ERK1, ERK2 as well as other protein kinases close to p38α MAPK in the kinome phylogenetic tree (FIG. 4, Table 4). […] Its IC50 toward p38α MAPK was determined, showing a value in the micromolar range (IC50=3.0±0.1 μM).

Chain of p38α MAPK (Q16539 whole entry): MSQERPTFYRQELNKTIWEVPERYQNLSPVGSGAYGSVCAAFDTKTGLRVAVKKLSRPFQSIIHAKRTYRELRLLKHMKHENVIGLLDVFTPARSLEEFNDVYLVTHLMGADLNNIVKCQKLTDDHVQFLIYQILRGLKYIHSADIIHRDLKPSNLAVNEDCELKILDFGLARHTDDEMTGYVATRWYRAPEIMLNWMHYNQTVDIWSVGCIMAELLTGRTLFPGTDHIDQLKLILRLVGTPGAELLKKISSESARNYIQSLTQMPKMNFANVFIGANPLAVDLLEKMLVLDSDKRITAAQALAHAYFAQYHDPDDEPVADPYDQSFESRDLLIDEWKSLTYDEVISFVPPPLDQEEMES

| Structure (SMILES) | IC50 |
| --- | --- |
| O=c1[nH]cc(Nc2ccccc2F)cc1-c1cccc2[nH]ccc12 [Compound 118, 5-((2-Fluorophenyl)amino)-3-(1H-indol-4-yl)pyridin-2(1H)-one] | 230 nM |
| O=c1[nH]cc(Nc2cccc(F)c2)cc1-c1cccc2[nH]ccc12 [Compound 119, 5-((3-Fluorophenyl)amino)-3-(1H-indol-4-yl)pyridin-2(1H)-one] | 1420 nM |
| O=c1[nH]cc(Nc2ccc(F)cc2)cc1-c1cccc2[nH]ccc12 [Compound 120, 5-((4-Fluorophenyl)amino)-3-(1H-indol-4-yl)pyridin-2(1H)-one] | 430 nM |

Next, values leading:

| IC50 | Structure (SMILES) |
| --- | --- |
| 5250 nM | COc1ccccc1Nc1c[nH]c(=O)c(-c2cccc3[nH]ccc23)c1 [Compound 121, 3-(1H-Indol-4-yl)-5-((2-methoxyphenyl)amino)pyridin-2(1H)-one] |
| 5530 nM | COc1cccc(Nc2c[nH]c(=O)c(-c3cccc4[nH]ccc34)c2)c1 [Compound 122, 3-(1H-Indol-4-yl)-5-((3-methoxyphenyl)amino)pyridin-2(1H)-one] |
| 3670 nM | COc1ccc(Nc2c[nH]c(=O)c(-c3cccc4[nH]ccc34)c2)cc1 [Compound 123, 3-(1H-Indol-4-yl)-5-((4-methoxyphenyl)amino)pyridin-2(1H)-one] |
| 1060 nM | Cc1ccccc1Nc1c[nH]c(=O)c(-c2cccc3[nH]ccc23)c1 [Compound 130, 3-(1H-Indol-4-yl)-5-(o-tolylamino)pyridin-2(1H)-one] |
| 1040 nM | O=c1[nH]cc(Nc2cccc(O)c2)cc1-c1cccc2[nH]ccc12 [Compound 134, 5-((3-hydroxyphenyl)amino)-3-(1H-indol-4-yl)pyridin-2(1H)-one] |
| 2720 nM | O=c1[nH]cc(Nc2ccccc2Br)cc1-c1cccc2[nH]ccc12 [Compound 141, 5-((2-Bromophenyl)amino)-3-(1H-indol-4-yl)pyridin-2(1H)-one] |
| 660 nM | O=c1[nH]cc(Nc2cccc(Br)c2)cc1-c1cccc2[nH]ccc12 [Compound 142, 5-((3-Bromophenyl)amino)-3-(1H-indol-4-yl)pyridin-2(1H)-one] |
| 2350 nM | O=c1[nH]cc(Nc2ccc(Br)cc2)cc1-c1cccc2[nH]ccc12 [Compound 143, 5-((4-Bromophenyl)amino)-3-(1H-indol-4-yl)pyridin-2(1H)-one] |
